This note sets out measurements from patent publication US20240409585A1, “MACROCYCLIC IMMUNOMODULATORS” (priority 2021, published 2024).

By IC50 is commonly meant the point on the concentration scale where inhibition reaches its midpoint.

Bridge positions count the residues as written; N and C are the ends. Square brackets hold non-standard residues; d marks the D form. Peptide text beside a SMILES is read from it. * marks the point of attachment. Tyr(3-NO2) = N[C@@H](Cc1ccc(O)c([N+](=O)[O-])c1)C(=O)O; Phe(4-COOH) = N[C@@H](Cc1ccc(C(=O)O)cc1)C(=O)O; Bip = N[C@@H](Cc1ccc(-c2ccccc2)cc1)C(=O)O; Phe(3-Me) = Cc1cccc(C[C@H](N)C(=O)O)c1; Cit = NC(=O)NCCC[C@H](N)C(=O)O; Carboxymethyl = O=C(O)C*; NMeA = CN[C@@H](C)C(=O)O; Nle = CCCC[C@H](N)C(=O)O; Orn = NCCC[C@H](N)C(=O)O; Dab = NCC[C@H](N)C(=O)O; Dap = NC[C@H](N)C(=O)O

For one test, the target named is T1, PE-labeled human PD-L1-Ig binding to Jurkat cell line over-expressing human PD-1 (Jurkat-PD-1) (Homo sapiens, UniProt Q15116).
T1 construct: expressed in transfected cells; host or cells: Jurkat
T1 sequence (Q15116 25-288): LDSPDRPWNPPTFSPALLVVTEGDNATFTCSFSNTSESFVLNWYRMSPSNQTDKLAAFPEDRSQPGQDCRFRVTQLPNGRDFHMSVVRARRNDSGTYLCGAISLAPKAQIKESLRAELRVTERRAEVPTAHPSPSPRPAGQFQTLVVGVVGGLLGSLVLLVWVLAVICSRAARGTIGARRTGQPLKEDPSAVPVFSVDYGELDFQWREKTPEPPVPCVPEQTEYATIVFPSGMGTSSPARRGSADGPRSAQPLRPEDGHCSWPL
The test is described as follows: Jurkat-PD-1 Cell Binding High-Content Screening Assay (CBA): Method 1. The note with it: Jurkat HPDL1 PD1 IC50 (uM) (Method 1), Jurkat-hPD-1 cells, PE-labeled PD-L1-Ig 20 nM final.
Compound `Cc1cccc(C[C@@H]2NC(=O)[C@H](CC(=O)O)NC(=O)[C@H](Cc3ccc(OCC(=O)O)cc3)NC(=O)[C@H](CN)NC(=O)CSC[C@@H](C(=O)N[C@@H](C)C(N)=O)NC(=O)[C@H](CO)NC(=O)[C@H](Cc3ccccc3)NC(=O)[C@H](CC(C)C)NC(=O)[C@H](CC(N)=O)NC(=O)[C@@H](CC(C)C)NC(=O)[C@H](C)N(C)C(=O)[C@H](Cc3ccccc3)NC(=O)[C@H](Cc3ccc(-c4ccccc4)cc3)NC(=O)[C@H](CC(C)C)NC2=O)c1` [Compound 1586] ({CH2CO}-[Dap]Y(Carboxymethyl)D[Phe(3-Me)]L[Bip]F[NMeA][dL]NLFSCA-NH2; thioether N-14) came in with an IC50 of 0.54 µM.

Staying with this test, now noted: Jurkat-hPD-1 cells, PE-labeled PD-L1-Ig 20 nM final; read-out: Jurkat HPDL1 PD1 IC50 (uM) (Method 1).
`Cc1cccc(C[C@@H]2NC(=O)[C@H](CC(N)=O)NC(=O)CSC[C@@H](C(=O)N[C@@H](C)C(N)=O)NC(=O)[C@H]([C@@H](C)O)NC(=O)[C@H](C(C)C)NC(=O)[C@H](CC(C)C)NC(=O)[C@H](CCN)NC(=O)[C@@H](CC(C)C)NC(=O)[C@H](C)N(C)C(=O)[C@H](CCCNC(=N)N)NC(=O)[C@H](Cc3ccc(-c4ccccc4)cc3)NC(=O)[C@H](C(C)C)NC(=O)[C@H](Cc3c[nH]c4ccccc34)NC(=O)[C@H](CC(=O)O)NC2=O)c1` [Compound 1305] ({CH2CO}-N[Phe(3-Me)]DWV[Bip]R[NMeA][dL][Dab]LVTCA-NH2; thioether N-14): the IC50 was 0.2 µM.

Turning to `CC(C)C[C@@H]1NC(=O)[C@H](Cc2c[nH]c3ccccc23)NC(=O)[C@H](CC(=O)O)NC(=O)[C@H](Cc2ccc(O)cc2)NC(=O)[C@H](Cc2ccccc2)NC(=O)CSC[C@@H](C(=O)N[C@@H](C)C(=O)N[C@@H](CCCN)C(=O)O)NC(=O)[C@H](CO)NC(=O)[C@H](C(C)C)NC(=O)[C@H](CC(C)C)NC(=O)[C@H](CC(N)=O)NC(=O)[C@@H](CC(C)C)NC(=O)[C@H](C)N(C)C(=O)[C@H](C(C)C)NC(=O)[C@H](Cc2ccc(-c3ccccc3)cc2)NC1=O` [Compound 2238] ({CH2CO}-FYDWL[Bip]V[NMeA][dL]NLVSCA[Orn]-OH; thioether N-14), the IC50 came to 0.01 µM. With `CCCC[C@@H]1NC(=O)[C@H](CC(N)=O)NC(=O)[C@@H](C)NC(=O)[C@H](C)N(C)C(=O)[C@H](C(C)C)NC(=O)[C@H](Cc2ccc(-c3ccccc3)cc2)NC(=O)[C@H](CC(C)C)NC(=O)[C@H](Cc2c[nH]c3ccccc23)NC(=O)[C@H](CC(=O)O)NC(=O)[C@H](Cc2ccc(O)cc2)NC(=O)[C@H](Cc2ccccc2)NC(=O)CSC[C@@H](C(=O)N[C@@H](C)C(N)=O)NC(=O)[C@H]([C@@H](C)O)NC(=O)[C@H](C(C)C)NC1=O` [Compound 1778] ({CH2CO}-FYDWL[Bip]V[NMeA][dA]N[Nle]VTCA-NH2; thioether N-14), the IC50 was 0.07 µM. Take `CC(C)C[C@@H]1NC(=O)[C@H](CCCN)NC(=O)[C@@H](CC(C)C)NC(=O)[C@H](C)N(C)C(=O)[C@H](CCCNC(=N)N)NC(=O)[C@H](Cc2ccc(-c3ccccc3)cc2)NC(=O)[C@H](C(C)C)NC(=O)[C@H](Cc2c[nH]c3ccccc23)NC(=O)[C@H](CC(=O)O)NC(=O)[C@H](Cc2ccc(O)c([N+](=O)[O-])c2)NC(=O)[C@H](CC(N)=O)NC(=O)CSC[C@@H](C(=O)N[C@@H](C)C(N)=O)NC(=O)[C@H]([C@@H](C)O)NC(=O)[C@H](C(C)C)NC1=O` [Compound 1154] ({CH2CO}-N[Tyr(3-NO2)]DWV[Bip]R[NMeA][dL][Orn]LVTCA-NH2; thioether N-14): the IC50 turned out to be 0.03 µM. For `CC(C)C[C@@H]1NC(=O)[C@H](CCN)NC(=O)[C@@H](CC(C)C)NC(=O)[C@H](C)N(C)C(=O)[C@H](CCCNC(N)=O)NC(=O)[C@H](Cc2ccc(-c3ccccc3)cc2)NC(=O)[C@H](C(C)C)NC(=O)[C@H](Cc2c[nH]c3ccccc23)NC(=O)[C@H](CC(=O)O)NC(=O)[C@H](Cc2ccc(C(=O)O)cc2)NC(=O)[C@H](Cc2ccc(OCC(=O)O)cc2)NC(=O)CSC[C@@H](C(=O)N[C@@H](C)C(N)=O)NC(=O)[C@H]([C@@H](C)O)NC(=O)[C@H](C(C)C)NC1=O` [Compound 1573] ({CH2CO}-Y(Carboxymethyl)[Phe(4-COOH)]DWV[Bip][Cit][NMeA][dL][Dab]LVTCA-NH2; thioether N-14), the IC50 stood at 0.05 µM.
